# Measurements as given in PubChem BioAssay (NCI).
#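 Compound exposure: 48 hours, 5 concentrations, 96-well plates. TGI is the concentration that stops growth completely.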
# What was measured:
# Test in all cases: NCI tumour cell line growth inhibition, 48 h
# HL-60(TB) leukemia = test system: HL-60(TB) leukemia
# DLD-1 colon = test system: DLD-1 colon
# IGROV1 ovarian = test system: IGROV1 ovarian
# SNB-75 CNS = test system: SNB-75 CNS
# UACC-62 melanoma = test system: UACC-62 melanoma
# MCF7 breast = test system: MCF7 breast
# UACC-257 melanoma = test system: UACC-257 melanoma
# HCC-2998 colon = test system: HCC-2998 colon
# SK-MEL-5 melanoma = test system: SK-MEL-5 melanoma
# SF-539 CNS = test system: SF-539 CNS
# OVCAR-4 ovarian = test system: OVCAR-4 ovarian
# SN12C renal = test system: SN12C renal
# SF-295 CNS = test system: SF-295 CNS
# SNB-78 CNS = test system: SNB-78 CNS
# NCI-H23 lung = test system: NCI-H23 lung
# MALME-3M melanoma = test system: MALME-3M melanoma
# HOP-62 NSCLC = test system: HOP-62 NSCLC
# M19-MEL melanoma = test system: M19-MEL melanoma
# HT29 colon = test system: HT29 colon
# SK-OV-3 ovarian = test system: SK-OV-3 ovarian
# DMS 114 small cell lung = test system: DMS 114 small cell lung
# P388 leukemia = test system: P388 leukemia
# NCI-H226 lung = test system: NCI-H226 lung
# RPMI-8226 leukemia = test system: RPMI-8226 leukemia
# SNB-19 CNS = test system: SNB-19 CNS
# A549 NSCLC = test system: A549 NSCLC
# U251 CNS = test system: U251 CNS
# LOX IMVI melanoma = test system: LOX IMVI melanoma
# HCT-15 colon = test system: HCT-15 colon
# CAKI-1 renal = test system: CAKI-1 renal
# OVCAR-8 ovarian = test system: OVCAR-8 ovarian
# SF-268 CNS = test system: SF-268 CNS
# KM20L2 colon = test system: KM20L2 colon
# SN12K1 renal = test system: SN12K1 renal
# CCRF-CEM leukemia = test system: CCRF-CEM leukemia
# SK-MEL-28 melanoma = test system: SK-MEL-28 melanoma
# OVCAR-3 ovarian = test system: OVCAR-3 ovarian
# COLO 205 colon = test system: COLO 205 colon
# EKVX NSCLC = test system: EKVX NSCLC
# SK-MEL-2 melanoma = test system: SK-MEL-2 melanoma
# NCI-H460 lung = test system: NCI-H460 lung
# NCI/ADR-RES ovarian = test system: NCI/ADR-RES ovarian
# HOP-92 NSCLC = test system: HOP-92 NSCLC
# A498 renal = test system: A498 renal
# MOLT-4 leukemia = test system: MOLT-4 leukemia
# RXF 393 renal = test system: RXF 393 renal
# KM12 colon = test system: KM12 colon
# UO-31 renal = test system: UO-31 renal
# HOP-18 NSCLC = test system: HOP-18 NSCLC
# P388/ADR leukemia = test system: P388/ADR leukemia
# XF 498 CNS = test system: XF 498 CNS
# HCT-116 colon = test system: HCT-116 colon
# NCI-H522 lung = test system: NCI-H522 lung
# OVCAR-5 ovarian = test system: OVCAR-5 ovarian
# SW-620 colon = test system: SW-620 colon
# DMS 273 small cell lung = test system: DMS 273 small cell lung
# K-562 leukemia = test system: K-562 leukemia
structure (smiles),measurement,setting,value
COc1cc2c(oc(=O)c3cc(C)cc(OC)c32)c2c(C3OC(C)C(O)C(C)(O)C3O)ccc(O)c12 (configuration not stated),TGI,HL-60(TB) leukemia,251 nM
same,TGI,DLD-1 colon,4560 nM
same,TGI,IGROV1 ovarian,5590 nM
same,TGI,SNB-75 CNS,1460 nM
same,TGI,UACC-62 melanoma,1130 nM
same,TGI,MCF7 breast,3990 nM
same,TGI,UACC-257 melanoma,1620 nM
same,TGI,HCC-2998 colon,1760 nM
same,TGI,SK-MEL-5 melanoma,1790 nM
same,TGI,SF-539 CNS,1730 nM
same,TGI,OVCAR-4 ovarian,2140 nM
same,TGI,SN12C renal,2390 nM
same,TGI,SF-295 CNS,1290 nM
same,TGI,SNB-78 CNS,5320 nM
same,TGI,NCI-H23 lung,2160 nM
same,TGI,MALME-3M melanoma,1450 nM
same,TGI,HOP-62 NSCLC,1080 nM
same,TGI,M19-MEL melanoma,1640 nM
same,TGI,HT29 colon,4810 nM
same,TGI,SK-OV-3 ovarian,4450 nM
same,TGI,DMS 114 small cell lung,1170 nM
same,TGI,P388 leukemia,2030 nM
same,TGI,NCI-H226 lung,1210 nM
same,TGI,RPMI-8226 leukemia,1920 nM
same,TGI,SNB-19 CNS,4630 nM
same,TGI,A549 NSCLC,7400 nM
same,TGI,U251 CNS,2420 nM
same,TGI,LOX IMVI melanoma,1710 nM
same,TGI,HCT-15 colon,3650 nM
same,TGI,CAKI-1 renal,2060 nM
same,TGI,OVCAR-8 ovarian,1990 nM
same,TGI,SF-268 CNS,2100 nM
same,TGI,KM20L2 colon,5040 nM
same,TGI,SN12K1 renal,1510 nM
same,TGI,CCRF-CEM leukemia,2410 nM
same,TGI,SK-MEL-28 melanoma,1850 nM
same,TGI,OVCAR-3 ovarian,2510 nM
same,TGI,COLO 205 colon,1410 nM
same,TGI,EKVX NSCLC,2310 nM
same,TGI,SK-MEL-2 melanoma,1560 nM
same,TGI,NCI-H460 lung,763 nM
same,TGI,NCI/ADR-RES ovarian,2510 nM
same,TGI,HOP-92 NSCLC,4320 nM
same,TGI,A498 renal,1290 nM
same,TGI,MOLT-4 leukemia,875 nM
same,TGI,RXF 393 renal,1180 nM
same,TGI,KM12 colon,5410 nM
same,TGI,UO-31 renal,3190 nM
same,TGI,HOP-18 NSCLC,5300 nM
same,TGI,P388/ADR leukemia,3410 nM
same,TGI,XF 498 CNS,1150 nM
same,TGI,HCT-116 colon,6120 nM
same,TGI,NCI-H522 lung,1730 nM
same,TGI,OVCAR-5 ovarian,2890 nM
same,TGI,SW-620 colon,7740 nM
same,TGI,DMS 273 small cell lung,1270 nM
same,TGI,K-562 leukemia,3730 nM
